One data set addresses T1, Brd4 bromodomain 1 (Homo sapiens, UniProt O60885).
T1 construct: made in house; host or cells: E. coli BL21(DE3)
Briefly: Inhibition of tetra-acetylated histone H4 binding to BET bromodomains (TR-FRET). The following applies: first bromodomain of Brd4, tetra-acetylated histone H4 peptide. Set-up: key: Active: Compounds with an IC50 value less than 30 μM were deemed to be active.; Not Active: Compounds with an IC50 value less than 30 μM were deemed to be active. The method, boiled down:
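TR-FRET with N-terminally His-tagged bromodomains (200 nM, E. coli-expressed, Ni affinity and SEC-purified) and biotinylated tetra-acetylated histone H4 peptide (25–50 nM), detected with Eu-cryptate streptavidin and XL665 anti-His antibody. Buffer 30 mM HEPES pH 7.4, 320 mM KF, 0.08% BSA, 0.2% DMSO; 2 h RT. IC50 from decrease in 665/620 nm ratio.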
Background: TR-FRET usually uses a lanthanide donor and a delayed reading to cut background.

For another data set, the system named is c-myc. Briefly: Inhibition of c-myc expression in cancer cell lines (mRNA, real-time PCR). In kind it is cell-based. On the set-up: key: Active: Compounds with an IC50 value less than 30 μM were deemed to be active. The following applies: Human AML MV4-11 cells, 3 hours. The method, boiled down: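 MV4-11 cells (2.5×10^4) exposed to compound or 0.1% DMSO for 3 h at 37° C, then lysed for mRNA isolation. c-myc and cyclophilin cDNAs co-amplified by duplex RT real-time PCR. IC50 from dose-response curve.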
(In general: Real-time PCR tracks product formation cycle by cycle.)

The next data set has as its system hMCP-1 mRNA. Briefly: Inhibition of hMCP-1 mRNA transcription in human peripheral blood mononuclear cells. In kind it is cell-based. On the set-up: key: Active: Compounds with an IC50 value less than 30 μM were deemed to be active.; Not Active: Compounds with an IC50 value less than 30 μM were deemed to be active. The following applies: 3 h. On the procedure:
In this example, hMCP-1 mRNA in human peripheral blood mononuclear cells was quantitated to measure the transcriptional inhibition of hMCP-1 when treated with a compound of the present disclosure.
Human Peripheral Blood Mononuclear Cells were plated (1.0×10^5 cells per well) in a 96-well plate in 45 μL RPMI-1640 containing 10% FBS and penicillin/streptomycin. The cells were treated with the test compound (45 μL at 2× concentration), and then the cells were incubated at 37° C. for 3 h before the cells were harvested. At time of harvest, cells were transferred to V-bottom plates and centrifuged at 800 rpm for 5 minutes. Spent media was removed and cell lysis solution (70 μL) was added the cells in each well and incubated for 5-10 min at room temperature, to allow for complete cell lysis and detachment. mRNA was then prepared using the “mRNA Catcher PLUS plate” (Invitrogen), according to the protocol supplied. After the last wash, as much wash buffer as possible was aspirated without allowing the wells to dry. […]
The eluted mRNA isolated was then used in a one-step quantitative real-time PCR reaction, using components of the Ultra Sense Kit together with Applied Biosystems primer-probe mixes. Real-time PCR data was analyzed, normalizing the Ct values for hMCP-1 to an internal control, prior to determining the fold induction of each unknown sample, relative to the control.

In the next data set the test system is hApoA-1 mRNA. Briefly: Up-regulation of hApoA-1 mRNA transcription in Huh7 cells. On the set-up: key: Active: Compounds with an EC170 value less than 30 μM are deemed to be active.; Not Active: Compounds with an EC170 value less than 30 μM are deemed to be active. The following applies: 48 hrs treatment, ApoA-I mRNA. Type of data set: cell-based, human. The method, boiled down:
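Huh7 cells plated 24 h before compound, then treated 48 h; mRNA isolated from lysates and ApoA-I quantified by one-step real-time PCR. Fold induction derived from Ct values relative to the matching DMSO control; EC170 reported as activity measure.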

The structures appear in SMILES notation.

Experimental findings from patent publication US9765039B2, “Biaryl derivatives as bromodomain inhibitors” (Zenith Epigenetics Ltd., priority 2012, dated 2017) are described below.

As usually defined, the melting point is the temperature of the solid-liquid transition. For the compound `COc1cc(OC)c2c(=O)[nH]c(-c3ccc(OCCNC(C)C)c(-c4ccc([S+](C)[O-])cc4)n3)nc2c1` (centres unmarked) [Example 41, 2-(5-(2-(Isopropylamino)ethoxy)-6-(4-(methylsulfinyl)phenyl)pyridin-2-yl)-5,7-dimethoxyquinazolin-4(3H)-one], the melting point was 93 to 95 °C. For the same compound, at Brd4 bromodomain 1, the “FRET activity (IC50 < 30 μM)” value is on record as “Active”. Further, the “c-myc activity (IC50 < 30 μM)” value with c-myc is “Active”. The “MCP-1 Activity (IC50 < 30 μM)” value in the data set with hMCP-1 mRNA is recorded as “Active”. In addition, in the data set with hApoA-1 mRNA, the “ApoA-1 Activity (EC170 < 30 μM)” value is on record as “Active”.
